Results taken from paper PMC5136371, “Acetylcholinesterase and Cytotoxic Activity of Chemical Constituents of Clutia lanceolata Leaves and its Molecular Docking Study” (Natural Products and Bioprospecting, 2016).
Like-named read-outs stand apart in the source and are kept apart here.

Tests used:
[1] = test system: brine shrimp nauplii (Artemia salina); assay: In vivo cytotoxicity, brine shrimp lethality bioassay; conditions: 24 h incubation, 10-80 µg/mL, triplicate
Experimental: The in vivo cytotoxicity of compounds (1–4) isolated from the leaves of C. lanceolata was evaluated to brine shrimp nauplii using vincristine sulfate as standard (Fig. S1 †ESI). It is one of the most convenient methods to determine the cytotoxicity of any compound.
Brine shrimp lethality bioassay is commonly used in the bioassay for the bioactive compounds [44, 45]. The in vivo cytotoxicity assay was performed on brine shrimp nauplii (Artemia salina) in accordance with the Mayer method. The egg of brine shrimp were hatched in a tank filled with artificially prepared sea water (brine, 3.8 % NaCl) exposed to incandescent light. Air was supplied at the bottom of the tank with the help of air supplier fitted with tube to keep the shrimps in uniform motion. The assay was performed 24 h after hatching and no food supplement was given during the hatching and experimental periods. A test sample (5.0 mg) was dissolved in 1 mL DMSO to obtain stock solution of 5 mg/mL. Different concentrations of test samples were obtained from stock solution and placed in separate vials, and the volume of each vial was made up to 5 mL with brine to obtain the desired final concentrations (10, 20, 40, 60 and 80 µg/mL). The negative control was prepared in the same manner without the samples. Vincristine sulphate was used as a standard anti-cancer drug. Thirty brine shrimp nauplii were then placed in each vial. After 24 h of incubation, the vials were observed using a magnifying glass, and the number of survivors in each vial were counted and noted. The LD50 values were calculated using the plot of percentage of mortality and logarithm of concentration. All tests were performed in triplicate and expressed as mean.

[2] = target: T1, human recombinant AChE (Homo sapiens, UniProt P22303); assay: biochemical
T1 construct: purchased Sigma-Aldrich
T1 sequence (P22303 32-614): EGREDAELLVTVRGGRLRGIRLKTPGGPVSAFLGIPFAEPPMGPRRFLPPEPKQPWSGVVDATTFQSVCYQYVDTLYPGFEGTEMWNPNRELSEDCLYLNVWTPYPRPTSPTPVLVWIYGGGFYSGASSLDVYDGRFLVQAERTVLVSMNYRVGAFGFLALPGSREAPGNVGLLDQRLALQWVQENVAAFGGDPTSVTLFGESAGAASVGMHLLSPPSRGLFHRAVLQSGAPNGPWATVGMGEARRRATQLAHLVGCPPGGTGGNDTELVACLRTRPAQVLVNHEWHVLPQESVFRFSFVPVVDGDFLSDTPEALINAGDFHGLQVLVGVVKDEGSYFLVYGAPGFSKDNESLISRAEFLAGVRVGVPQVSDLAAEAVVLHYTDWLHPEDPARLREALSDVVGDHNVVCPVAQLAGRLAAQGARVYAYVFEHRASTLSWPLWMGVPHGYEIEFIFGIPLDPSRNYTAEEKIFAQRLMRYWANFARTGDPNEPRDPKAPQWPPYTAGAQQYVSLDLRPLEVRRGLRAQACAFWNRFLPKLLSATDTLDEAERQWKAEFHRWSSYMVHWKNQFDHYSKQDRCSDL
Experimental: AChE stock solution was prepared by dissolving human recombinant AChE (EC: 3.1.1.7) lyophilized powder (Sigma-Aldrich) in 0.1 M phosphate buffer (pH = 8.0) containing Triton X-100 (0.1 %). […] Increasing concentrations of the tested inhibitor were added to the assay solution and pre-incubated for 5 min at 37 °C with the enzyme followed by the addition of the substrate. Initial rate assays were performed at 37 °C using a Jasco V-530 double beam Spectrophotometer. The absorbance value at 412 nm was recorded for 5 min and enzyme activity was calculated from the slope of the obtained linear trend. Assays were carried out with a blank containing all components except AChE to account for the non-enzymatic reaction. The reaction rates were compared and the percent inhibition due to the presence of tested inhibitors was calculated. […] Tacrine was used as a standard inhibitor.

[3] = Solubility and air stability of the isolated crystals; format: physicochemical; conditions: for solubility in organic solvents: all common organic solvents; for stability in air: once isolated

Q: With `Cc1c(C(=O)O)ccc(O)c1O` [Compound 1, 3,4-dihydroxy-2-methylbenzoic acid] as the compound, how does the LD50 value [1] read?
A: 23.40 ± 0.02 µg/mL

Q: And the LD50 value ([1]; listed as compound 1)?
A: 23.40 µg/mL

Q: And the IC50 ([2]; human recombinant AChE, pH 8.0, 37 °C, substrate acetylthiocholine iodide 550 µM, triplicate, read-out: IC50 ± SEM for hAChE inhibition)?
A: 23.7 ± 0.02 µM

Q: For `Oc1ccc2ccccc2c1-c1c(O)ccc2ccccc12` [Compound 2, 2,2′-dihydroxy-1,1′-binaphthyl], which “solubility in organic solvents” value [3] is on record?
A: soluble in all common organic solvents

Q: And the stability in air [3]?
A: air-stable

Q: What about the solubility in water [3] of the same compound?
A: insoluble in water

Q: What about the LD50 value [1] of the same compound?
A: 17.78 ± 0.05 µg/mL

Q: And the LD50 value ([1]; listed as compound 2)?
A: 17.78 µg/mL

Q: What about the IC50 [2] of the same compound?
A: 21.9 ± 0.05 µM

Q: Which LD50 value [1] does the source give for `Cc1cc(O)c2c(c1)C(=O)c1cc(O)cc(O)c1C2=O` [Compound 3, 1,3,8-trihydroxy-6-methylanthracene-9,10-dione] here?
A: 13.80 ± 0.03 µg/mL

Q: What about the LD50 value ([1]; listed as compound 3) of the same compound?
A: 13.80 µg/mL

Q: And the IC50 [2]?
A: 14.2 ± 0.06 µM

Q: With `COc1cc(/C=C/C(=O)/C=C(O)/C=C/c2ccc(O)c(OC)c2)ccc1O` [Compound 4, 5-hydroxy-1,7-bis(4-hydroxy-3-methoxyphenyl)hepta-1,4,6-trien-3-one] as the compound, how does the “solubility in organic solvents” value [3] read?
A: soluble in all common organic solvents

Q: And the stability in air [3]?
A: air-stable

Q: And the solubility in water [3]?
A: insoluble in water

Q: And the LD50 value [1]?
A: 11.66 ± 0.04 µg/mL

Q: What about the LD50 value ([1]; listed as compound 4) of the same compound?
A: 11.66 µg/mL

Q: With `CC[C@]1(O)C[C@H]2CN(CCc3c([nH]c4ccccc34)[C@@](C(=O)OC)(c3cc4c(cc3OC)N(C=O)[C@H]3[C@@](O)(C(=O)OC)[C@H](OC(C)=O)[C@]5(CC)C=CCN6CC[C@]43[C@@H]65)C2)C1` [Vincristine sulphate, reference compound] as the compound, how does the LD50 value [1] read?
A: 8.84 ± 0.01 µg/mL

Q: And the LD50 value ([1]; listed as vincristine sulfate)?
A: 8.84 µg/mL
